Target: T1, soluble lytic transglycosylase Cj0843 (Campylobacter jejuni, UniProt Q0PA47)
T1 construct: gene Cj0843c; Cj0843-pET28b expressed in E. coli (not glycosylated); native P3_121 model contains residues 19–76 and 81–532
Test: crystal structure ([…] Å, soaked crystals) and DSF Kd; also partial inhibition in PG turbidity assay
Type: binding

T1 sequence (Q0PA47 entry or part of it): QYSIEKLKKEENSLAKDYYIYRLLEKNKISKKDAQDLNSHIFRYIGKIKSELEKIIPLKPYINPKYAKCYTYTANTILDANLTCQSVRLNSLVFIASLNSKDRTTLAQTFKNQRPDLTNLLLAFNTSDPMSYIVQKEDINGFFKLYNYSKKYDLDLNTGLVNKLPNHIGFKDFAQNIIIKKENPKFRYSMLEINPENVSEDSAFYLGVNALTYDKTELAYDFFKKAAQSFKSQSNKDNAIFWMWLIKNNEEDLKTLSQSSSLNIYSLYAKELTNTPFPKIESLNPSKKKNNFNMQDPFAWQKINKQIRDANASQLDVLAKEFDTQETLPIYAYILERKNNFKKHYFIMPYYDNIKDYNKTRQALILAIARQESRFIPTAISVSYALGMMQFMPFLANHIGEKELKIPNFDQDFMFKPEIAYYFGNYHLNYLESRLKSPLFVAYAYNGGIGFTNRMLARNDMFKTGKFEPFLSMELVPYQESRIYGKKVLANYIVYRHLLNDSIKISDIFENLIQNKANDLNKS

SMILES: CC(=O)N[C@H]1[C@H](O[C@H]2C[C@@H](C(=O)NCCS(=O)(=O)O)N[C@@H]2CO)O[C@H](CO)[C@@H](OS(=O)(=O)O)[C@@H]1O [bulgecin A]
- Kd: 210 µM
